Test results: US12012415B2, “Compositions and methods for the diagnosis, treatment and prevention of neoplastic and neurological disorders” (AscentGene, Inc., priority 2018, dated 2024)
Entries after “also recorded” stand apart in the source; their conditions may differ.

Experiments:
[1] = test system: A549 xenograft (NSCLC formation); assay: A549 xenograft mice, AG-1031 pre-injection (vaccine); assay type: in vivo
Protocol: AG-1031 was injected into mice two weeks before injection of tumor cell (see FIG. 9).
Tumor volume was measured for 35 days after administration of AG-1031 to xenograft mice.
IP inject with AG-1031 40 μg/mice, once a week (×2) before A549 cells inoculate to the SHO mice. Assessment of AG-1031 effect on tumor growth in A549 xenograft mice.

[2] = test system: A549 xenograft (NSCLC tumor); assay: A549 xenograft mice, AG-1031 treatment after inoculation; assay type: in vivo; conditions: 20-40 μg/mice IP every other day, 28 days, after tumor formation
Protocol: Mice were treated with AG-1031 (20-40 μg/mice) every other day via IP injection after A549 inoculate to the SHO mice treatment and followed for up to 28 days.
Tumor volume was measured during treatment of NSCLC cells with AG-1031 over 28 days.

[3] = test system: Rat glioblastoma cell lines C6; assay: Cell growth of glioblastoma cell line C6; assay type: cell-based; conditions: cell growth rate from number of live cells
Protocol: (§1) Rat glioblastoma cell lines C6 (A) and human non-small cell lung cancer cell line H841 (B) were grown in the proper medium and treated with different concentration of drug candidate AG-1031 (P) and AG-1503 (#3). Cell growth rate was calculated based on the number of live cells as compared to concentration in M of selected small molecules of the invention (see FIGS. 6A and 6B).

[4] = test system: human non-small cell lung cancer cell line H841; assay: Cell growth of NSCLC cell lines; assay type: cell-based; conditions: cell growth rate from number of live cells
Protocol: as §1

[5] = test system: glioma (glioblastoma cell line C6); assay: C6 glioma xenograft model, tumor growth, behaviour and memory; assay type: in vivo, rats; conditions: for ability of new object recognition: rat, in vivo; for recovery of memory loss and loss of other activities: xenograft model of C6 cell line
PC4 protein = PC4 protein (Homo sapiens, UniProt P53999); assay: PC4-DNA binding interference; conditions: for PC4 inhibition: high-throughput screen platform
Protocol: A number of small molecules were incubated with PC4 protein and DNA binding assessed.

Substance | tumor volume ([1]; AG-1031 injected two weeks before tumor cells, control 302.9 mm^3) | tumor volumes ([1]; measured for 35 days after administration) | prevention of tumor formation ([1]; pre-injection of AG-1031 before tumor cells) | growth of NSCLC tumor [2] | inhibition of growth of glioma cell line C6 [3] | inhibition of growth of NSCLC cell lines [4] | ability of new object recognition [5] | glioma growth ([5]; xenograft model from C6 cell line) | recovery of memory loss and loss of other activities [5] | PC4 inhibition (PC4 protein) | interference of PC4-DNA binding (PC4 protein; small molecules incubated with PC4 protein, in vitro) | open-field anxiety and activity ([5]; rats with glioma)
9-methyl (I) and 13-methyl (II) trans-(+)-18-ethenyl-4,4a-dihydro-3,4-bis(methoxycarbonyl)4a,8,14,19-tetramethyl-23H, 25H-benzo[b]porphine-9,13-dipropanoate [AG-1031] | 69.0 mm^3 | substantially reduces tumor volumes | prevents NSCLC formation in vivo; also recorded: effectively prevented tumor formation | inhibits growth of NSCLC tumor cells; also recorded: inhibiting tumor growth | inhibition of rat glioblastoma cell line C6 | inhibition of human non-small cell lung cancer cell line H841; also recorded: inhibited non-small cell lung cancer (NSCLC) cell growth | showed efficacy to improve ability of new object recognition | significantly inhibited glioma growth | recovery of memory loss and other activity loss | strong PC4 inhibitor | significant interference of PC4-DNA binding; also recorded: specifically inhibits PC4 activity by blocking its double stranded DNA binding ability | 
Coproporphyrin III tetramethyl ester [AG-1503] |  |  |  |  | inhibition of rat glioblastoma cell line C6; also recorded: specific inhibitory activity on growth of glioma cell line C6 | inhibition of human non-small cell lung cancer cell line H841; also recorded: not significant inhibitory activity on growth of NSCLC cell lines | showed efficacy to improve ability of new object recognition |  | better activity for recovering memory loss and loss of other activities | strong PC4 inhibitor |  | improvement of anxiety and activity
